The values below come from ChEMBL document CHEMBL1129327, “Diphenylpropionic acids as new AT1 selective angiotensin II antagonists” (J Med Chem, 1996).

In assay [1] the target is T1, Angiotensin II receptor (AT-1) type-1 (Rattus norvegicus, UniProt P29089+P25095).
T1 sequence (P29089 whole entry): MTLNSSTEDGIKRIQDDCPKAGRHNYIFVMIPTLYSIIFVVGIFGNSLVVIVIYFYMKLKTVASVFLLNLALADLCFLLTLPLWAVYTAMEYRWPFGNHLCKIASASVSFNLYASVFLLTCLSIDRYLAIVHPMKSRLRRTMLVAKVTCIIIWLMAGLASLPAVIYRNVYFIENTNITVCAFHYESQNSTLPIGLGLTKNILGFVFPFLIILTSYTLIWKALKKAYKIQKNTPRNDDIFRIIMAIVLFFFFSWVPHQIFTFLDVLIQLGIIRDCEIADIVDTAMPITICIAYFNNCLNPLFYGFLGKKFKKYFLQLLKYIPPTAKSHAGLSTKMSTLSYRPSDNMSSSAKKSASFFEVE
T1 sequence (P25095 whole entry): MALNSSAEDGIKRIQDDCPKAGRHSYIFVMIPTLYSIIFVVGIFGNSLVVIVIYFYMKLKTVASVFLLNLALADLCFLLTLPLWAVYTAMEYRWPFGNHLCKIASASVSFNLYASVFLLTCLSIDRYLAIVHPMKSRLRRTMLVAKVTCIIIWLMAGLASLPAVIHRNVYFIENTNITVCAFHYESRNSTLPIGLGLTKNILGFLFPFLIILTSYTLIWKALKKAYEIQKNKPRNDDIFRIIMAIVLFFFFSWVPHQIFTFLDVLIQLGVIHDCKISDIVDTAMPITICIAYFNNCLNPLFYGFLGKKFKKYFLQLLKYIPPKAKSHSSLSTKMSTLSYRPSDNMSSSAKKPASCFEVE
Nature of the assay: Inhibitory concentration was evaluated by measuring displacement of [3H]AII from rat liver Angiotensin II receptor, type 1. Background: Displacement assays read how much labelled ligand stays bound in the presence of the test substance.

Assay [2] deals with Rattus norvegicus. Nature of the assay: (§1) In vivo inhibitory percentage of pressor response induced by exogenous submaximal dose of angiotensin -II […] administered iv to pithed rats. It counts as functional.
The test system of assay [3] is Rattus norvegicus. Described as §1. It counts as functional. This is another data set of the same source.
The species named for assay [4] is Oryctolagus cuniculus. Description: Antagonism against A-2 induced contraction of aortic rings of rabbit. To be noted: read-out: pA2 (converted).
For assay [5], the species on record is Oryctolagus cuniculus. Nature of the assay: Antagonism against A-2 induced contraction of aortic rings from rabbit. The format is functional. To be noted: Aorta, read-out: pA2 (converted).

Usually IC50 stands for the concentration needed to halve the response being measured. A low value points to greater potency in that assay. A word on the Inhibition: it is the drop in the measured response relative to a control, in per cent. Higher therefore signals a response far below the control. `CCc1nc2c(C)cc(C)nc2n1Cc1ccc([C@H](c2ccccc2)[C@H](C)C(=O)O)cc1` (stereo in doubt; 36g) had an IC50 in assay [1] of 69 nM. For the same compound, the values for the Inhibition in the assay with Rattus norvegicus [2] and with Rattus norvegicus [3] were 68.5% and 84.8%, respectively. Further, the Kb in the assay filed under Oryctolagus cuniculus [4] is 2.04 nM.

In assay [1], `CCc1nc2c(C)cc(C)nc2n1Cc1ccc([C@H](c2ccccc2)[C@@H](C)C(=O)O)cc1` (stereo in doubt; 37g) registered an IC50 of 250 nM. Further, the Inhibition in the assay on Rattus norvegicus [3] was 28.2%. Also, the Kb in the assay filed under Oryctolagus cuniculus [5] is 49 nM.

Take `CCC[C@H](C(=O)O)[C@@H](c1ccccc1)c1ccc(Cn2c(CC)nc3c(C)cc(C)nc32)cc1`: in assay [1], the concentration for half-maximal inhibition (IC50) is 83 nM. The Inhibition in the assay on Rattus norvegicus [2] was 64%; in the assay on Rattus norvegicus [3], 73.8%.

As to `CCc1nc2c(C)cc(C)nc2n1Cc1ccc([C@H](c2ccccc2)[C@H](CC)C(=O)O)cc1`, the IC50 in assay [1] is 50 nM. Further, the results for the Inhibition with Rattus norvegicus [2] and in the assay with Rattus norvegicus [3] were 73.3% and 86.1%, respectively. Besides, the Kb in the assay filed under Oryctolagus cuniculus [5] is 3.89 nM.

Take `CCCCc1nc(Cl)c(CO)n1Cc1ccc(-c2ccccc2-c2nnn[nH]2)cc1` [LOSARTAN]: the Inhibition in the assay on Rattus norvegicus [2] came out at 62.5%; with Rattus norvegicus [3] it was 93.5%. Further, the Kb in the assay listed under Oryctolagus cuniculus [5] was 2.95 nM.

`CCc1nc2c(C)cc(C)nc2n1Cc1ccc([C@H](c2ccccc2)[C@H](C)C(=O)NS(C)(=O)=O)cc1`: in assay [1], the IC50 turned out to be 58 nM. For the same compound, the Inhibition is 55.9% in the assay with Rattus norvegicus [2] and 71.3% in the assay with Rattus norvegicus [3].

The compound `CCc1nc2c(C)cc(C)nc2n1Cc1ccc([C@H](c2ccccc2)[C@@H](C)C(=O)O)cc1` (stereo in doubt; (+)37g) came in with an IC50 in assay [1] of 440 nM. This compound also returned an Inhibition in the assay on Rattus norvegicus [3] of 19.7%.

`CCc1nc2c(C)cc(C)nc2n1Cc1ccc([C@H](c2ccccc2)[C@H](C)C(=O)O)o1` returned an IC50 in assay [1] of 4800 nM. The same compound came in with an Inhibition in the assay on Rattus norvegicus [3] below 10%.
